In patent US4732970A, “Antitumor amino acid and peptide derivatives of 1,4-bis(aminoalkyl and hydroxy-aminoalkyl)amino)-5,8-dihydroxyanthraquinones” (priority 1986, dated 1988):

Tested on: lymphocytic leukemia P388
Assay: Lymphocytic Leukemia P388 Test
Assay type: in vivo, BDF1 mice
Settings: for Median Survival: BDF1 mice; for T/C × 100 (%): ratio of survival time treated/control
Outline: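 BDF1 mice (5–6 per group) were inoculated i.p. with 10^6 P388 cells, then dosed i.p. on days 1, 5 and 9 at various doses. Survival was followed for 60 days, and median survival time and the treated/control (T/C) survival ratio were calculated.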

[1] = dose 0.75 mg/kg intraperitoneally on days 1, 5 and 9
[2] = dose 1.5 mg/kg intraperitoneally on days 1, 5 and 9
[3] = dose 3 mg/kg intraperitoneally on days 1, 5 and 9

Row | SMILES | Median Survival [1] [days] | T/C × 100 (%) [1] [%] | Median Survival [2] [days] | T/C × 100 (%) [2] [%] | Median Survival [3] [days] | T/C × 100 (%) [3] [%]
1 | Br.Br.CC(C)C[C@H](NC(=O)CNC(=O)CN)C(=O)NCCNc1ccc(NCCNC(=O)[C@H](CC(C)C)NC(=O)CNC(=O)CN)c2c1C(=O)c1c(O)ccc(O)c1C2=O [Example 70, N,N'-[(9,10-Dihydro-5,8-dihydroxy-9,10-dioxo-1,4-anthracenediyl)bis(imino-2,1-ethanediyl)]bis[glycylglycyl-L-leucinamide]dihydrobromide] | 22.0 | 220 | 22.5 | 225 | 44.5 | 445
2 | C[C@H](N)C(=O)N[C@@H](C)C(=O)N[C@@H](C)C(=O)NCCNc1ccc(NCCNC(=O)[C@H](C)NC(=O)[C@H](C)NC(=O)[C@H](C)N)c2c1C(=O)c1c(O)ccc(O)c1C2=O.O=C(O)C(F)(F)F.O=C(O)C(F)(F)F [Example 73, N,N'-[(9,10-Dihydro-5,8-dihydroxy-9,10-dioxo-1,4-anthracenediyl)bis(imino-2,1-ethanediyl)]bis[L-alanyl-L-alanyl-L-alanine]bis(trifluoroacetate)] | 21.0 | 200 | 24.5 | 233 | 40.0 | 381
3 | C[C@H](NC(=O)[C@H](CO)NC(=O)OC(C)(C)C)C(=O)NCCNc1ccc(NCCNC(=O)[C@H](C)NC(=O)[C@H](CO)NC(=O)OC(C)(C)C)c2c1C(=O)c1c(O)ccc(O)c1C2=O [Example 75] | 18.5 | 154 | 19.0 | 158 | 21.0 | 175
4 | C[C@H](NC(=O)[C@@H](N)CO)C(=O)NCCNc1ccc(NCCNC(=O)[C@H](C)NC(=O)[C@@H](N)CO)c2c1C(=O)c1c(O)ccc(O)c1C2=O.O=C(O)C(F)(F)F.O=C(O)C(F)(F)F [Example 76, N,N'-[(9,10-Dihydro-5,8-dihydroxy-9,10-dioxo-1,4-anthracenediyl)bis(imino-2,1-ethanediyl)]bis[L-seryl-L-alaninamide]bis(trifluoroacetate)] | 22.0 | 183 | 22.5 | 188 | 22.5 | 188
5 | C[C@H](NC(=O)[C@H](CO)NC(=O)[C@H](CC(=O)OC(C)(C)C)NC(=O)OCC1c2ccccc2-c2ccccc21)C(=O)NCCNc1ccc(NCCNC(=O)[C@H](C)NC(=O)[C@H](CO)NC(=O)[C@H](CC(=O)OC(C)(C)C)NC(=O)OCC2c3ccccc3-c3ccccc32)c2c1C(=O)c1c(O)ccc(O)c1C2=O [Example 77, N,N'-[(9,10-Dihydro-5,8-dihydroxy-9,10-dioxo-1,4-anthracenediyl)bis(imino-2,1-ethanediyl)]bis[N-[(9H-fluoren-9-ylmethoxy)carbonyl]-L-α-aspartyl-L-seryl-L-alaninamide]bis(1,1-dimethylethyl)ester] | 20.0 | 167 | 20.0 | 167 | 22.5 | 188
6 | C[C@H](NC(=O)[C@H](CO)NC(=O)[C@@H](N)CC(=O)OC(C)(C)C)C(=O)NCCNc1ccc(NCCNC(=O)[C@H](C)NC(=O)[C@H](CO)NC(=O)[C@@H](N)CC(=O)OC(C)(C)C)c2c1C(=O)c1c(O)ccc(O)c1C2=O [Example 78, N,N'-[(9,10-Dihydro-5,8-dihydroxy-9,10-dioxo-1,4-anthracenediyl)bis(imino-2,1-ethanediyl)]bis[L-α-aspartyl-L-seryl-L-alaninamide]bis(1,1-dimethylethyl)ester] | 18.0 | 150 | 23.0 | 192 | 22.5 | 188
7 | C[C@H](NC(=O)[C@H](C)NC(=O)[C@H](CC(=O)OC(C)(C)C)NC(=O)OCC1c2ccccc2-c2ccccc21)C(=O)NCCNc1ccc(NCCNC(=O)[C@H](C)NC(=O)[C@H](C)NC(=O)[C@H](CC(=O)OC(C)(C)C)NC(=O)OCC2c3ccccc3-c3ccccc32)c2c1C(=O)c1c(O)ccc(O)c1C2=O [Example 79, N,N'-[(9,10-Dihydro-5,8-dihydroxy-9,10-dioxo-1,4-anthracenediyl)bis(imino-2,1-ethanediyl)]bis[N-[(9H-fluoren-9-ylmethoxy)carbonyl]-L-α-aspartyl-L-alanyl-L-alaninamide]bis(1,1-dimethylethyl)ester] | 18.5 | 168 | 18.0 | 164 | 19.0 | 173
8 | CC(NC(=O)C(N)CC(=O)OC(C)(C)C)C(=O)NC(C)C(=O)NCCNc1ccc(NCCNC(=O)C(C)NC(=O)C(C)NC(=O)C(N)CC(=O)OC(C)(C)C)c2c1C(=O)c1c(O)ccc(O)c1C2=O [Example 80, N,N'-[(9,10-Dihydro-5,8-dihydroxy-9,10-dioxo-1,4-anthracenediyl)bis(imino-2,1-ethanediyl)]bis[L-α-aspartyl-L-alanyl-L-alaninamide]bis(1,1-dimethylethyl)ester] | 19.0 | 173 | 19.5 | 177 | 26.0 | 236
9 | CC(C)C[C@H](NC(=O)[C@H](C)NC(=O)[C@H](CC(=O)OC(C)(C)C)NC(=O)OCC1c2ccccc2-c2ccccc21)C(=O)NCCNc1ccc(NCCNC(=O)[C@H](CC(C)C)NC(=O)[C@H](C)NC(=O)[C@H](CC(=O)OC(C)(C)C)NC(=O)OCC2c3ccccc3-c3ccccc32)c2c1C(=O)c1c(O)ccc(O)c1C2=O [Example 81, N,N'-[(9,10-Dihydro-5,8-dihydroxy-9,10-dioxo-1,4-anthracenediyl)bis(imino-2,1-ethanediyl)]bis[N-[(9H-fluoren-9-ylmethoxy)carbonyl]-L-α-aspartyl-L-alanyl-L-leucinamide]bis(1,1-dimethylethyl)ester] | 16.0 | 145 | 18.5 | 168 | 19.0 | 173
10 | CC(C)C[C@H](NC(=O)[C@H](C)NC(=O)[C@@H](N)CC(=O)OC(C)(C)C)C(=O)NCCNc1ccc(NCCNC(=O)[C@H](CC(C)C)NC(=O)[C@H](C)NC(=O)[C@@H](N)CC(=O)OC(C)(C)C)c2c1C(=O)c1c(O)ccc(O)c1C2=O [Example 82, N,N'-[(9,10-Dihydro-5,8-dihydroxy-9,10-dioxo-1,4-anthracenediyl)bis(imino-2,1-ethanediyl)]bis[L-α-aspartyl-L-alanyl-L-leucinamide]bis(1,1-dimethylethyl)ester] | 21.0 | 191 | 19.0 | 173 | 19.0 | 173
11 | C[C@H](NC(=O)[C@H](C)NC(=O)[C@@H](N)CC(=O)O)C(=O)NCCNc1ccc(NCCNC(=O)[C@H](C)NC(=O)[C@H](C)NC(=O)[C@@H](N)CC(=O)O)c2c1C(=O)c1c(O)ccc(O)c1C2=O.O=C(O)C(F)(F)F.O=C(O)C(F)(F)F [Example 83] | 22.0 | 220 | 22.5 | 225 | 38.5 | 385
